Test results: patent US20260263338A1, “COMPOSITIONS COMPRISING AMAROUCIAXANTHIN A ESTERS AND USES THEREOF” (GAT THERAPEUTICS, S.L., priority 2022, published 2026)
≈ marks a conversion by molar mass, not a printed value.

How the values were obtained:
[1] = Solubility in different lipid vehicle formulations (HPLC assay of the filtered sample); assay type: physicochemical; conditions: about 25 mg compound in 1 mL
Description: About 25 mg of compound was weighted into a glass vial and 1 mL of the lipophilic solvent was added to the vial containing the compound. The vial was vortexed for 1 minute followed by sonication for 30 minutes. The resulting solution was visually observed for any undissolved particles. The sonicated sample was filtered through a 0.22 μm PTFE filter and 500 μL of this filtered sample was dissolved with 25 mL of a EtOH: hexane (80:20) solution (“dilution 1”). 1 mL of “dilution 1” was dissolved with 10 mL of ACN to obtain “dilution 2”. 1 mL of “dilution 2” was filtered through a 0.22 μm PTFE filter and directly used for assay by HPLC. The concentration was calculated by extrapolation from a calibration curve. 1.00 mg of standard compound was accurately weighted (precision scale) and diluted to 100 ppm in a volumetric flask.

[2] = Oral kinetic assay in mice: plasma concentration of ACX after oral delivery of FCX or ACX-Ac; assay type: in vivo, mice Hsd: ICR (CD-1); conditions: for AUCt, area under the concentration-time curve from 0 to the time of the last quantifiable observation, of ACX / Cmax: ACX measured in plasma after the named compound, oral (intragastric), single 10 mg/kg, sunflower oil; for AUCt, area under the concentration-time curve from 0 to the time of the last quantifiable observation, of ACX: linear-log trapezoidal rule; for Cmax: noncompartmental analysis, read-out: Cmax, maximum observed plasma concentration of ACX
Description: Immunocompetent mice from the strain Hsd: ICR (CD-1) (females, 6-7 weeks old from ENVIGO), were housed under sterile conditions at a constant temperature of 20-22° C. and relative humidity (45-65%) under daily cycles of light/darkness (12 hours). Sterilized water and food were available ad libitum.
ACX-Ac was dissolved at 1 mg/mL in sunflower oil and sterilized by filtration. FCX was dissolved at 2 mg/mL in sunflower oil and sterilized by filtration. Animals were weighted before the assay to determine the appropriate dispensing volume at 5 mL/kg (FCX) or 10 ml/kg (ACX-Ac). Formulations were administered once, intragastrically, at 10 mg/kg. Blood was collected at different time points, as stated in Table 1. It was extracted either through the facial vein or by intracardiac puncture (end points), on recipients containing 5 μL of 0.5 M EDTA.
Blood samples were analyzed by HPLC-MS/MS following proprietary analytical methods and the concentration of ACX in each sample was determined. A non-compartmental pharmacokinetic analysis was carried out using individual plasma concentrations versus sampling times by means of the PKPlus® software version 2.0 (Simulations Plus, Lancaster, CA 93534, USA).

[3] = DHA (fish oil), PUFA-enriched oil

SMILES	solubility [1, 3] [mg/mL]	solubility ([1]; Labrafac Lipophile 1349) [mg/mL]	solubility ([1]; Labrafac MC60) [mg/mL]	solubility ([1]; Labrafil M 1944CS) [mg/mL]	solubility ([1]; Labrafil M 2125) [mg/mL]	solubility ([1]; Labrasol ALF) [mg/mL]	solubility ([1]; Maisine) [mg/mL]	solubility ([1]; Plurol Oleique) [mg/mL]	solubility ([1]; Sunflower oil) [mg/mL]	AUCt, area under the concentration-time curve from 0 to the time of the last quantifiable observation, of ACX [2] [µM·h]	Cmax [2] [µM]	administered compound detected in plasma samples ([2]; oral, 10 mg/kg in sunflower oil)	plasma levels of ACX in comparison to those obtained after FX administration ([2]; oral, 10 mg/kg in sunflower oil, FIG. 1 and Table 3)	oral absorption of the administered compound ([2]; oral, oil formulation, 10 mg/kg)
CC(=O)O[C@H]1CC(C)(C)C(=C=C/C(C)=C/C=C/C(C)=C/C=C/C=C(C)/C=C/C=C(\C)C(=O)C[C@@]2(O)C(C)=CC(=O)CC2(C)C)[C@](C)(O)C1 [ACX-Ac, Amarouciaxanthin A acetate]	18.3	21.7	21.0	22.6	23.0	22.4	22.9	11.9	19.9	80.59	9.35	not detected	substantially higher	–
CC1=CC(=O)CC(C)(C)[C@@]1(O)CC(=O)/C(C)=C/C=C/C(C)=C/C=C/C=C(C)/C=C/C=C(\C)C=C=C1C(C)(C)C[C@H](O)C[C@@]1(C)O [ACX, Amarouciaxanthin A]	7.2 (≈ 11.7 mM)	19.0 (≈ 30.9 mM)	15.9 (≈ 25.9 mM)	19.9 (≈ 32.4 mM)	20.3 (≈ 33 mM)	22.4 (≈ 36.4 mM)	19.9 (≈ 32.4 mM)	16.7 (≈ 27.2 mM)	9.2 (≈ 15 mM)	–	–	–	–	–
CC(=O)O[C@H]1CC(C)(C)C(=C=C/C(C)=C/C=C/C(C)=C/C=C/C=C(C)/C=C/C=C(\C)C(=O)C[C@@]23O[C@]2(C)C[C@@H](O)CC3(C)C)[C@](C)(O)C1 [FCX, fucoxanthin]	4.1 (≈ 6.22 mM)	16.9 (≈ 25.6 mM)	20.4 (≈ 31 mM)	17.6 (≈ 26.7 mM)	23.0 (≈ 34.9 mM)	22.3 (≈ 33.8 mM)	23.0 (≈ 34.9 mM)	20.7 (≈ 31.4 mM)	5.0 (≈ 7.59 mM)	51.19	2.87	–	–	negligible
